Where two headings read alike, the source gives them in different places.
Tests used:
Experiment in all cases: selectivity profiling in a panel of 340 wild-type kinases (Reaction Biology Europe)
Format in all cases: binding
340 wild-type kinases [1] = molecular target: T1, 340 wild-type kinases (Homo sapiens, UniProt P27361)
T1 construct: purchased Reaction Biology Europe

340 wild-type kinases [2] = molecular target: T2, 340 wild-type kinases (Homo sapiens, UniProt Q9HBH9)
T2 construct: purchased Reaction Biology Europe
T2 sequence (Q9HBH9 whole entry): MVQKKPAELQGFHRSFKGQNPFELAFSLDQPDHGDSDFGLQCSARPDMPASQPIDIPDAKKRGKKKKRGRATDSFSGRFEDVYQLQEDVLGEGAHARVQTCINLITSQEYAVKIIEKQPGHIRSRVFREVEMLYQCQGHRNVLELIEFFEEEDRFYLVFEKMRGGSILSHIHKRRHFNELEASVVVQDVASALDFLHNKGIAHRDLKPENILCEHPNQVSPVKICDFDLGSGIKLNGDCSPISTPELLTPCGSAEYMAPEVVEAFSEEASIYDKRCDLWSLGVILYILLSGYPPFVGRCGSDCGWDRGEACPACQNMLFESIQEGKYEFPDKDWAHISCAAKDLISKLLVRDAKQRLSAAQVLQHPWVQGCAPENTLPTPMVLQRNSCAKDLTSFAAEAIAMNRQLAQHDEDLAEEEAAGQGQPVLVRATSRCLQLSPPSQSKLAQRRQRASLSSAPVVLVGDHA

340 wild-type kinases [3] = molecular target: T3, 340 wild-type kinases (Homo sapiens, UniProt Q9UF33)
T3 construct: purchased Reaction Biology Europe
T3 sequence (Q9UF33 23-1036): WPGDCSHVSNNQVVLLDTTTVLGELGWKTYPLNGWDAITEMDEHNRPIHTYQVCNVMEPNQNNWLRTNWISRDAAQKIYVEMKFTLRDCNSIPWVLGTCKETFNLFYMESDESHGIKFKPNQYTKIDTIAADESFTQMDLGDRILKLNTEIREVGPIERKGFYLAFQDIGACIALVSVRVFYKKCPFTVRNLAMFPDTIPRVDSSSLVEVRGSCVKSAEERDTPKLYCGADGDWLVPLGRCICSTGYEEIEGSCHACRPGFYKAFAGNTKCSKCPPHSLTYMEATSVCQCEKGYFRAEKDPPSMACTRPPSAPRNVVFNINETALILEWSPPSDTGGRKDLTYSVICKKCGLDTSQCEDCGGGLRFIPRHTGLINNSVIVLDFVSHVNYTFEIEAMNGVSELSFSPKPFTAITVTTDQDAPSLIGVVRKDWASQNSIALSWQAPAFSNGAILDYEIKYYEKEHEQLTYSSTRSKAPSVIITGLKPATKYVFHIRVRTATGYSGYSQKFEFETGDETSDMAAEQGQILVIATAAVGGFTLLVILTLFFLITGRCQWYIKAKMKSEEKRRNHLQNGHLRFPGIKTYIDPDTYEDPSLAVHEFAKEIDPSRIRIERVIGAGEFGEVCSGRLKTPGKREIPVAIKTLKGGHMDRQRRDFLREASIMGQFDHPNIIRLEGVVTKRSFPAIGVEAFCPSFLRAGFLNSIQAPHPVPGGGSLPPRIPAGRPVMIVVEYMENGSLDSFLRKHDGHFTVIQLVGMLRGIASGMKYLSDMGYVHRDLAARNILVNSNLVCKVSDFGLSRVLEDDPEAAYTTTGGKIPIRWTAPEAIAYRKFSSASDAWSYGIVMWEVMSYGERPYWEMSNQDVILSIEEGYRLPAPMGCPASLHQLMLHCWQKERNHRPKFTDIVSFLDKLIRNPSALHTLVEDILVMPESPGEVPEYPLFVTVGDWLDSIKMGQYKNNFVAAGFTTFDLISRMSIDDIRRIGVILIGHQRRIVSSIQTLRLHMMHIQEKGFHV

340 wild-type kinases [4] = molecular target: T4, 340 wild-type kinases (Homo sapiens, UniProt Q9Y6M4)
T4 construct: purchased Reaction Biology Europe
T4 sequence (Q9Y6M4 whole entry): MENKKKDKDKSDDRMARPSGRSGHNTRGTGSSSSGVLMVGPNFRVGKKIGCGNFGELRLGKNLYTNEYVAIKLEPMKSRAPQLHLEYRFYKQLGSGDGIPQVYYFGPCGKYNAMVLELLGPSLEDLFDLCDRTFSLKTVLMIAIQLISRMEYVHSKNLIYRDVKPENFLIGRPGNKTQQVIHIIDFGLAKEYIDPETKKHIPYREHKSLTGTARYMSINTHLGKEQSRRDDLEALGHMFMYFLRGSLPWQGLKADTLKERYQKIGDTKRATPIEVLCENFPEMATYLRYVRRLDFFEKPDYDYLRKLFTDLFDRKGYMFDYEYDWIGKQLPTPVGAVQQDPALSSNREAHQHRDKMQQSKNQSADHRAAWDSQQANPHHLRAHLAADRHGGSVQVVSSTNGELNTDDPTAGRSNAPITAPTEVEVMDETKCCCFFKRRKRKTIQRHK

340 wild-type kinases [5] = conditions: for residual activity: RAF1 YDYD
340 wild-type kinases [6] = molecular target: T5, 340 wild-type kinases (Homo sapiens, UniProt Q96KB5)
T5 construct: purchased Reaction Biology Europe
T5 sequence (Q96KB5 1-322): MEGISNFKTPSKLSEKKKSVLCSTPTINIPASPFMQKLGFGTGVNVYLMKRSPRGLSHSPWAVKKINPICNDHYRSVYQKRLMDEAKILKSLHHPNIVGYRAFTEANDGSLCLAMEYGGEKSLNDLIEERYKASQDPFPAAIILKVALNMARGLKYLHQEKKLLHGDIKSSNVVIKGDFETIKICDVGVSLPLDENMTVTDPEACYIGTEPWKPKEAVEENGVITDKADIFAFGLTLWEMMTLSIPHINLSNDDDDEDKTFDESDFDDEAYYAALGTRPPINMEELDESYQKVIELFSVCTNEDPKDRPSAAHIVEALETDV

340 wild-type kinases [7] = molecular target: T6, 340 wild-type kinases (Homo sapiens, UniProt Q32MK0)
T6 construct: purchased Reaction Biology Europe
T6 sequence (Q32MK0 1-819): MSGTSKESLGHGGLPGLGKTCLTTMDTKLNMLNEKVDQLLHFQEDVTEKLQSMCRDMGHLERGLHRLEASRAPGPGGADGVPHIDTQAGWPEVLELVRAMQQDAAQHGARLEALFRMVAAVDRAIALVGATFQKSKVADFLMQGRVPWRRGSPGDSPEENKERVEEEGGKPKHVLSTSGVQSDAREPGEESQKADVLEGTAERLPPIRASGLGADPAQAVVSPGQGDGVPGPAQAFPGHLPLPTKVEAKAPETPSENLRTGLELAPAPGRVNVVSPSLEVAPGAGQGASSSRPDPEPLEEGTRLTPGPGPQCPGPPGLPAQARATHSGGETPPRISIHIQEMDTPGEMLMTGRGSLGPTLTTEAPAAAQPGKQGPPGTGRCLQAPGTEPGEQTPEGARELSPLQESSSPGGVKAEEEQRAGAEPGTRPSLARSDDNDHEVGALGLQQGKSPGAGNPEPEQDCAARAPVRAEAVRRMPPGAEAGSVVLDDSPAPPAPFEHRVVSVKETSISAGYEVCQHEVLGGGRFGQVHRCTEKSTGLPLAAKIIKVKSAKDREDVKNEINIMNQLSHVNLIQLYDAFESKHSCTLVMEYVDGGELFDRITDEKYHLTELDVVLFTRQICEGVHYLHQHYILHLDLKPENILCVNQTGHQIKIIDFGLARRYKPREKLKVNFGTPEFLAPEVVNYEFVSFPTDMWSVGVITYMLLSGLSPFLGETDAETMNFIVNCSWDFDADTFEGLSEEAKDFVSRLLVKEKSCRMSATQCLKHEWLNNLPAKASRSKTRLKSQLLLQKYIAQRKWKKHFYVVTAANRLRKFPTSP

T1 sequence (P27361 whole entry): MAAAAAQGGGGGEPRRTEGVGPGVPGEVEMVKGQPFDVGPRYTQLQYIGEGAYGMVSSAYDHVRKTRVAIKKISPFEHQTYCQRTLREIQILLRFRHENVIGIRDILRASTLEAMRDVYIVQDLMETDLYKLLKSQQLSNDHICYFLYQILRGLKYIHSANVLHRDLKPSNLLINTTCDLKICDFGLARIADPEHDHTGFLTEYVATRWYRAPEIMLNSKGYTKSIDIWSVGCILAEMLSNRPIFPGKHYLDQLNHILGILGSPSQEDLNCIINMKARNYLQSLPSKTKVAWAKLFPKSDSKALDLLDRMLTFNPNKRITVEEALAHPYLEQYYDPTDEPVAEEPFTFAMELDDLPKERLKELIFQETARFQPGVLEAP

SMILES: CNC(=O)c1ccc2c(c1)C(=O)c1ccc(Nc3ccc(F)c(NC(=O)C4CC4)c3)cc1CC2 [Compound 2015]
- remaining activity at 1 µM (340 wild-type kinases [1]; 1 µM 2015, read-out: ERK1 residual activity): 104%
- remaining activity at 0.2 µM (340 wild-type kinases [1]; ERK1, 0.2 µM, read-out: residual activity): 108%
- remaining activity at 1 µM (340 wild-type kinases [1]; ERK1, 1 µM, read-out: residual activity): 104%
- remaining activity at 0.2 µM (340 wild-type kinases [2]; 0.2 µM 2015, read-out: MKNK2 residual activity): 105%
- remaining activity at 1 µM (340 wild-type kinases [2]; 1 µM 2015, read-out: MKNK2 residual activity): 102%
- remaining activity at 0.2 µM (340 wild-type kinases [2]; MKNK2, 0.2 µM, read-out: residual activity): 105%
- remaining activity at 1 µM (340 wild-type kinases [2]; MKNK2, 1 µM, read-out: residual activity): 102%
- remaining activity at 0.2 µM (340 wild-type kinases [3]; 0.2 µM 2015, read-out: EPHA6 residual activity): 87.2%
- remaining activity at 1 µM (340 wild-type kinases [3]; 1 µM 2015, read-out: EPHA6 residual activity): 85.9%
- remaining activity at 0.2 µM (340 wild-type kinases [3]; EPHA6, 0.2 µM, read-out: residual activity): 87.2%
- remaining activity at 1 µM (340 wild-type kinases [3]; EPHA6, 1 µM, read-out: residual activity): 85.9%
- remaining activity at 0.2 µM (340 wild-type kinases [4]; 0.2 µM 2015, read-out: CK1gamma3 residual activity): 93.4%
- remaining activity at 1 µM (340 wild-type kinases [4]; 1 µM 2015, read-out: CK1gamma3 residual activity): 91%
- remaining activity at 0.2 µM (340 wild-type kinases [4]; CK1gamma3, 0.2 µM, read-out: residual activity): 93.4%
- remaining activity at 1 µM (340 wild-type kinases [4]; CK1gamma3, 1 µM, read-out: residual activity): 91%
- PKCbeta2 residual activity (340 wild-type kinases [5]; 0.2 µM 2015): 102.668%
- PKCbeta2 residual activity (340 wild-type kinases [5]; 1 µM 2015): 108.52%
- residual activity (340 wild-type kinases [5]; 0.2 µM): 80.31%
- residual activity (340 wild-type kinases [5]; 1 µM): 88.78%
- effect on p38α and p38β (in words) (340 wild-type kinases [5]; panel of 340 kinases, 1 µM and 0.2 µM): specifically inhibited
- remaining activity at 0.2 µM (340 wild-type kinases [6]; 0.2 µM 2015, read-out: PBK residual activity): 96.5%
- remaining activity at 1 µM (340 wild-type kinases [6]; 1 µM 2015, read-out: PBK residual activity): 79.7%
- remaining activity at 0.2 µM (340 wild-type kinases [6]; PBK, 0.2 µM, read-out: residual activity): 96.5%
- remaining activity at 1 µM (340 wild-type kinases [6]; PBK, 1 µM, read-out: residual activity): 79.7%
- remaining activity at 0.2 µM (340 wild-type kinases [7]; 0.2 µM 2015, read-out: MYLK3 residual activity): 106%
- remaining activity at 1 µM (340 wild-type kinases [7]; 1 µM 2015, read-out: MYLK3 residual activity): 93.5%
- remaining activity at 0.2 µM (340 wild-type kinases [7]; MYLK3, 0.2 µM, read-out: residual activity): 106%
- remaining activity at 1 µM (340 wild-type kinases [7]; MYLK3, 1 µM, read-out: residual activity): 93.5%

— PMC11864979, “First-in-class ultralong-target-residence-time p38α inhibitors as a mitosis-targeted therapy for colorectal cancer” (Nature Cancer, 2025)
